How the values were obtained:
[1] = 32-day stability of stock solutions stored at −80 °C; assay type: physicochemical; details: stock solution stored at -80 °C; peak area Day 32 vs Day 1
Procedure: Stability of stock solutions
All stock solutions of antibiotics and their corresponding stable-isotope variants were measured prior to cold storage at -80 °C and tested at 32 days later.
Stability was determined by comparing the peak area of each drug between its Day 1 and Day 32 measurement. Acceptable criteria for stability was met if the […]

[2] = Autosampler stability at 4 °C of extracted antibiotic-spiked plasma/CAMHB samples; details: for Mean accuracy (%), Table S8 / Mean accuracy (%), Table S10: CAMHB extracted samples; for Mean accuracy (%), Table S8 / Mean accuracy (%), Table S7: 7 h autosampler 4 °C; for Mean accuracy (%), Table S10 / Mean accuracy (%), Table S9: 15 h autosampler 4 °C; for Mean accuracy (%), Table S7 / Mean accuracy (%), Table S9: plasma extracted samples
Procedure: (§1) The stability of fosfomycin in combination with other antibiotics in plasma/CAMHB was evaluated under various operational conditions. Spiked plasma/CAMHB samples were evaluated at 7 h and 15 h in the autosampler at 4 °C. Long-term stability was evaluated up to 4 weeks of antibiotic-spiked plasma/CAMHB samples at LQC, MQC, and HQC concentrations stored at −30 °C and −80 °C.

[3] = Long-term storage stability of antibiotics in combination with fosfomycin spiked in plasma/CAMHB (−30 °C, −80 °C); assay type: physicochemical; details: for Mean accuracy (%), Table S17 / Mean accuracy (%), Table S16 / Mean accuracy (%), Table S18 / Mean accuracy (%), Table S15: CAMHB; for Mean accuracy (%), Table S17 / Mean accuracy (%), Table S16 / Mean accuracy (%), Table S18 / Mean accuracy (%), Table S11 / Mean accuracy (%), Table S13 / Mean accuracy (%), Table S12 / Mean accuracy (%), Table S14 / Mean accuracy (%), Table S15: combination with fosfomycin; for Mean accuracy (%), Table S17 / Mean accuracy (%), Table S13: 2 weeks at -80 °C; for Mean accuracy (%), Table S16 / Mean accuracy (%), Table S12: 4 weeks at -30 °C; for Mean accuracy (%), Table S18 / Mean accuracy (%), Table S14: 4 weeks at -80 °C; for Mean accuracy (%), Table S11 / Mean accuracy (%), Table S13 / Mean accuracy (%), Table S12 / Mean accuracy (%), Table S14: plasma; for Mean accuracy (%), Table S11 / Mean accuracy (%), Table S15: 2 weeks at -30 °C
Procedure: as §1

[4] = Plasma concentrations in four patients on fosfomycin-based combination therapy (pilot clinical feasibility study, LCMS/MS)
Procedure: For 20 µL of plasma/CAMHB sample, 20 µL of water and 20 µL of stable-isotope as internal standard (IS) were added and vortexed. 180 µL of acetonitrile was added for protein precipitation and subsequently removed by centrifugation (12,700 rpm for 10 min at 25 °C). Finally, 15 µL of the supernatant was diluted with 225 µL formic acid in water (0.1% v/v), and 10 µL was injected for LCMS/MS analysis. For the calibration curve and QCs, 20 µL of the corresponding antibiotic standard working solution was added instead of water.
Samples were analyzed using a Nexera X2 LCMS 8060 system (Shimadzu, Kyoto, Japan). […] Electrospray ionization employing positive and negative ion mode with multiple reaction monitoring was used for analyte quantification (Table S1). Data were acquired and analyzed using Shimadzu LabSolutions (Version 5.97).
The assay method described in this paper has been applied to a pilot clinical feasibility study to evaluate the proportion of patients with sub-optimal β-lactam levels and the need for dose adjustments in infected patients with unpredictable pharmacokinetics. We described a case series of four patients where they received in vitro guided antibiotic combination therapy using a fosfomycin-based combination regimen to treat a carbapenem-resistant Gram-negative bacteria infection. These four patients were recruited into the BLAST-2 study as the combination regimen contains a β-lactam antibiotic. In this case series, two were undergoing intermittent hemodialysis, and two patients had normal renal function. In the two patients on hemodialysis, they were on a dosing regimen of 8 g of fosfomycin on dialysis days (3 g at least 4 h before dialysis session and 5 g after completion of dialysis). The remaining two patients received 8 g of fosfomycin given every 8 h as a prolonged infusion.
Blood samples (2–3 mL from an indwelling catheter) were collected four times over a dosing interval of the β-lactam dosing regimen and centrifuged (10 min at 3000 rpm) (Eppendorf 5425R). The resultant plasma was stored (within 15 min of collection) at −80 °C until assay.

[5] = HQC: nominal mg/L CAZ 150, FEP 200, PIP 250, ATM 300, MEM 200, DOR 175, LVX 30, CEFT 250, TZB 87.5, TGC 20, AVI 30, FOF 1000
[6] = LQC: nominal 1 mg/L (levofloxacin, avibactam 0.5; fosfomycin 10)
[7] = MQC: nominal mg/L CAZ 75, FEP 100, PIP 150, ATM 150, MEM 100, DOR 87.5, LVX 15, CEFT 125, TZB 43.75, TGC 10, AVI 15, FOF 500

32 Day Stability (%) [1] [%] | Mean accuracy (%), Table S8 ([2]; HQC (nominal as E15)) [%] | Mean accuracy (%), Table S8 ([2]; LQC (nominal as E13)) [%] | Mean accuracy (%), Table S8 ([2]; MQC (nominal as E14)) [%] | Mean accuracy (%), Table S10 ([2]; HQC (nominal as E15)) [%] | Mean accuracy (%), Table S10 ([2]; LQC (nominal as E13)) [%] | Mean accuracy (%), Table S10 ([2]; MQC (nominal as E14)) [%] | Mean accuracy (%), Table S7 [2, 5] [%] | Mean accuracy (%), Table S7 [2, 6] [%] | Mean accuracy (%), Table S7 [2, 7] [%] | Mean accuracy (%), Table S9 ([2]; HQC (nominal as E15)) [%] | Mean accuracy (%), Table S9 ([2]; LQC (nominal as E13)) [%] | Mean accuracy (%), Table S9 ([2]; MQC (nominal as E14)) [%] | Mean accuracy (%), Table S17 ([3]; HQC (nominal as E15)) [%] | Mean accuracy (%), Table S17 ([3]; LQC (nominal as E13)) [%] | Mean accuracy (%), Table S17 ([3]; MQC (nominal as E14)) [%] | Mean accuracy (%), Table S16 ([3]; HQC (nominal as E15)) [%] | Mean accuracy (%), Table S16 ([3]; LQC (nominal as E13)) [%] | Mean accuracy (%), Table S16 ([3]; MQC (nominal as E14)) [%] | Mean accuracy (%), Table S18 ([3]; HQC (nominal as E15)) [%] | SMILES | also measured
100.48 | 107.7 | 104.0 | 102.6 | 106.9 | 107.7 | 100.8 | 99.6 | 110.0 | 95.5 | 97.9 | 109.1 | 98.9 | 99.6 | 104.3 | 97.3 | 66.1 | 60.1 | 63.5 | 97.4 | C[C@@H](O)[C@H]1C(=O)N2C(C(=O)O)=C(S[C@@H]3CN[C@H](C(=O)N(C)C)C3)[C@H](C)[C@H]12 [Meropenem, meropenem] | Stability verdict (within ±15% of nominal) ([3]; CAMHB samples stored at −30 °C, 4 weeks): instability; Mean accuracy (%), Table S18 ([3]; LQC (nominal as E13)): 97.9%; Mean accuracy (%), Table S18 ([3]; MQC (nominal as E14)): 95.4%; Mean accuracy (%), Table S11 ([3]; HQC (nominal as E15)): 93.3%; Mean accuracy (%), Table S11 ([3]; LQC (nominal as E13)): 86.6%; Mean accuracy (%), Table S11 ([3]; MQC (nominal as E14)): 89.7%; Mean accuracy (%), Table S13 ([3]; HQC (nominal as E15)): 105.4%; Mean accuracy (%), Table S13 ([3]; LQC (nominal as E13)): 104.2%; Mean accuracy (%), Table S13 ([3]; MQC (nominal as E14)): 95.0%; Mean accuracy (%), Table S12 ([3]; HQC (nominal as E15)): 91.8%; Mean accuracy (%), Table S12 ([3]; LQC (nominal as E13)): 106.1%; Mean accuracy (%), Table S12 ([3]; MQC (nominal as E14)): 93.8%; Mean accuracy (%), Table S14 ([3]; HQC (nominal as E15)): 96.1%; Mean accuracy (%), Table S14 ([3]; LQC (nominal as E13)): 101.8%; Mean accuracy (%), Table S14 ([3]; MQC (nominal as E14)): 95.2%; Mean total plasma concentration (range) ([4]; Patient 004, meropenem 2 g every 8 h as a 3-h infusion): 6.7 to 23.0 mg/L
93.04 | 109.6 | 109.4 | 107.5 | 111.6 | 112.3 | 107.7 | 111.3 | 113.6 | 104.1 | 107.9 | 107.0 | 98.1 | 108.9 | 103.8 | 103.7 | 91.0 | 69.7 | 84.1 | 106.4 | C[C@]1(Cn2ccnn2)[C@H](C(=O)O)N2C(=O)C[C@H]2S1(=O)=O [Tazobactam, tazobactam] | Mean accuracy (%), Table S15 ([3]; HQC (nominal as E15)): 96.9%; Mean accuracy (%), Table S15 ([3]; LQC (nominal as E13)): 93.8%; Mean accuracy (%), Table S15 ([3]; MQC (nominal as E14)): 90.4%; Mean accuracy (%), Table S18 ([3]; LQC (nominal as E13)): 105.4%; Mean accuracy (%), Table S18 ([3]; MQC (nominal as E14)): 103.3%; Mean accuracy (%), Table S11 ([3]; HQC (nominal as E15)): 106.0%; Mean accuracy (%), Table S11 ([3]; LQC (nominal as E13)): 107.9%; Mean accuracy (%), Table S11 ([3]; MQC (nominal as E14)): 104.6%; Mean accuracy (%), Table S13 ([3]; HQC (nominal as E15)): 95.4%; Mean accuracy (%), Table S13 ([3]; LQC (nominal as E13)): 108.8%; Mean accuracy (%), Table S13 ([3]; MQC (nominal as E14)): 104.7%; Mean accuracy (%), Table S12 ([3]; HQC (nominal as E15)): 96.4%; Mean accuracy (%), Table S12 ([3]; LQC (nominal as E13)): 102.0%; Mean accuracy (%), Table S12 ([3]; MQC (nominal as E14)): 98.7%; Mean accuracy (%), Table S14 ([3]; HQC (nominal as E15)): 100.5%; Mean accuracy (%), Table S14 ([3]; LQC (nominal as E13)): 100.7%; Mean accuracy (%), Table S14 ([3]; MQC (nominal as E14)): 101.3%; Mean total plasma concentration (range) ([4]; Patient 001, piperacillin/tazobactam 4.5 g every 6 h as a 1-h infusion): 20.9 to 58.3 mg/L
